From patent US20230346827A1 (priority 2020, published 2023)

Tests used:
[1] = tested on: CD19+ B cells and PBMC + (α-IgM and TCR ligands); test: BioMAP BT system; assay type: cell-based, human; settings: annotated relative to vehicle controls
From the text: Cell types and stimuli used in each system are as follows: 3C system [HUVEC + (IL-1β, TNFα and IFNy)], 4H system [HUVEC + (IL-4 and histamine)], LPS system [PBMC and HUVEC + LPS (TLR4 ligand)], SAg system [PBMC and HUVEC + TCR ligands], BT system [CD19+ B cells and PBMC + (α-IgM and TCR ligands)], BF4T system [bronchial epithelial cells and HDFn + (TNFα and IL-4)], BE3C system [bronchial epithelial cells + (IL-1β, TNFα and IFNy)], CASM3C system [coronary artery smooth muscle cells + (IL-1 β, TNFα and IFNy)], HDF3CGF system [HDFn + (IL-1β, TNFα, IFNy, EGF, bFGF and PDGF-BB)], KF3CT system [keratinocytes and HDFn + (IL-1β, TNFα, IFNy and TGFβ)], MyoF system [differentiated lung myofibroblasts + (TNFα and TGFβ)] and Mphg system [HUVEC and M1 macrophages + Zymosan (TLR2 ligand)].
Systems are derived from either single cell types or co-culture systems. Adherent cell types are cultured in 96 or 384-well plates until confluence, followed by the addition of PBMC (SAg and LPS systems). […] Soluble factors from supernatants are quantified using either HTRF® detection, bead-based multiplex immunoassay or capture ELISA. Overt adverse effects of test agents on cell proliferation and viability (cytotoxicity) are detected by sulforhodamine B (SRB) staining, for adherent cells, and alamarBlue® reduction for cells in suspension. […]

[2] = tested on: rats with TGFβ1-induced trabecular meshwork fibrosis; test: Rodent model of anterior segment fibrosis / ocular hypertension (IC TGFβ1), s.c. LMW-DS 15 mg/kg daily; assay type: in vivo, rat; settings: day 28
Method: Before induction of raised IOP, rats were randomly assigned into two groups (for saline vehicle and LMW-DS treatment). Induction of raised IOP was induced as previously described (Hill LJ, et al. Decorin reduces intraocular pressure and retinal ganglion cell loss in rodents through fibrolysis of the scarred trabecular meshwork. Investigative ophthalmology & visual science. 2015; 56(6): 3743-57). At 0 d, a 15° disposable blade was used to make a self-sealing tunnel through the cornea and this access point was employed for all subsequent twice weekly 3.5 µl IC injections of 5 ng/ml TGFβ1 (Peprotech, London, UK), carried out using sterile glass micropipettes (Harvard Apparatus, Kent, UK) over the 28 d experiment. IOP was also measured twice-weekly (immediately prior to the IC injection) throughout the 28 d experiment. […] At 14 d, rats received either subcutaneous injections of 15 mg/kg LMW-DS (Tikomed AB) or an equivalent saline volume, which continued daily for 14 d. OCT measurements of the RFNL were taken at 28 d as a surrogate for RGC density and ocular tissues from both groups were processed for immunohistochemistry to assess levels of TM fibrosis and RGC survival.
Adult 10 week old) male Sprague Dawley rats (Charles River, Kent, UK) were housed with free access to food and water under a 12 h dark/light cycle. Surgery was performed at the Biomedical Services Unit at the University of Birmingham (UK) in accordance with the Home Office guidelines set out in the 1986 Animal Act (UK) and the ARVO Statement for the Use of Animals in Ophthalmic and Vision Research. Intraocular injections, optical coherence tomography and intraocular pressure measurements were all taken whilst rats were under inhaled anesthesia using between 2% - 5% isofluorane / 98% - 95% O2 (National Vet Supplies, UK). The welfare of all rats was monitored closely at all times.
IOP measurements were obtained using an iCare Tonolab (ICare, Helsinki, Finland) calibrated for rats. IOP was recorded twice weekly between 9 am and 11 am throughout the 28 d experiment to avoid confounding circadian variabilities in IOP. Immediately after induction of anesthesia, six rebound measurements were taken with the tonometer from the central cornea and averaged to give a single reading (mmHg). Each graphical data point represents the mean ± SEM of three readings (6 rebounds) taken from each rat sequentially to ensure accurate measurements.
Retinal nerve fiber layer (RNFL) measurements were taken at 28 d using a Spectralis HRA3 confocal scanning laser ophthalmoscope (Heidelberg Engineering, Heidelberg, Germany). Images were obtained from rats whilst under inhalational anesthesia (as described in the ‘Animals and Surgery’ section above). OCT images were taken of the retina around the optic nerve head and in-built software was used to segment images and quantify the RNFL thickness.
Rats were euthanized by an intraperitoneal injection of sodium pentobarbital (National Veterinary Supplies) on 28 d and intracardially perfused with 4% paraformaldehyde (PFA; TAAB, Aldermaston, UK) in PBS whilst under terminal anesthesia. Eyes were removed and immersion fixed in 4% PFA in PBS for 2 hours at room temperature and then cryoprotected using increasing concentrations of (10%, 20% and 30% sucrose) for 24 hours each at 4° C. […]

[3] = tested on: ALS patients; test: ALSAQ-40 sub-scores in ALS patients, dextran sulfate 2 mg/kg s.c. weekly for ten weeks (Example 14); assay type: in vivo, human; settings: after 10 weeks of treatment
Method: Dextran sulfate (ILB®, Tikomed AB, Viken, Sweden, WO 2016/076780) was administered at 2 mg/kg by […] subcutaneous injection once a week for ten weeks to 8 human patients suffering from ALS.
ALSAQ-40 was assessed pre-treatment and weekly thereafter for the 10 treatment weeks and for the visits at the follow-up period.

In the case of sodium salt of dextran sulfate [LMW-DS], the Decreased biomarker activity [1] is reported as “sIgG, sIL-17F”, the Increased biomarker activity [1] is reported as “sIL-17A” and the “fibronectin in the TM (immunoreactive)” value [2] is reported as 40.2 ± 4.0%. The “laminin in the TM (immunoreactive)” value [2] was 25.6 ± 3.5%, the “retinal nerve fibre layer (RNFL) thickness (OCT)” value [2] was 59.9 ± 1.2 µm and the “surviving retinal ganglion cells (RGC)” value [2] was 12.6 ± 0.4 RGC/mm. The IOP ([2]; IC TGFβ1 with SC LMW-DS from day 14) was 11.4 ± 0.2 mmHg, the “ALSAQ-40 ADL sub-score” value [3] was 44.4 ± 24.7 and the “ALSAQ-40 PM sub-score” value [3] was 22.7 ± 20.2. The “decline of ALSAQ-40 ADL sub-score” value [3] was 18.6% and the “decline of ALSAQ-40 PM sub-score” value [3] was 16%.
